Measurements published in ChEMBL document CHEMBL4316627, “Modulation of the NOD-like receptors NOD1 and NOD2: A chemist's perspective” (Bioorg Med Chem Lett, 2019).

Experiments:
[1] = molecular target: T1, Nucleotide-binding oligomerization domain-containing protein 1 (Homo sapiens, UniProt Q9Y239); assay: Binding affinity to NOD1 LRR domain (unknown origin)
T1 sequence (Q9Y239 whole entry): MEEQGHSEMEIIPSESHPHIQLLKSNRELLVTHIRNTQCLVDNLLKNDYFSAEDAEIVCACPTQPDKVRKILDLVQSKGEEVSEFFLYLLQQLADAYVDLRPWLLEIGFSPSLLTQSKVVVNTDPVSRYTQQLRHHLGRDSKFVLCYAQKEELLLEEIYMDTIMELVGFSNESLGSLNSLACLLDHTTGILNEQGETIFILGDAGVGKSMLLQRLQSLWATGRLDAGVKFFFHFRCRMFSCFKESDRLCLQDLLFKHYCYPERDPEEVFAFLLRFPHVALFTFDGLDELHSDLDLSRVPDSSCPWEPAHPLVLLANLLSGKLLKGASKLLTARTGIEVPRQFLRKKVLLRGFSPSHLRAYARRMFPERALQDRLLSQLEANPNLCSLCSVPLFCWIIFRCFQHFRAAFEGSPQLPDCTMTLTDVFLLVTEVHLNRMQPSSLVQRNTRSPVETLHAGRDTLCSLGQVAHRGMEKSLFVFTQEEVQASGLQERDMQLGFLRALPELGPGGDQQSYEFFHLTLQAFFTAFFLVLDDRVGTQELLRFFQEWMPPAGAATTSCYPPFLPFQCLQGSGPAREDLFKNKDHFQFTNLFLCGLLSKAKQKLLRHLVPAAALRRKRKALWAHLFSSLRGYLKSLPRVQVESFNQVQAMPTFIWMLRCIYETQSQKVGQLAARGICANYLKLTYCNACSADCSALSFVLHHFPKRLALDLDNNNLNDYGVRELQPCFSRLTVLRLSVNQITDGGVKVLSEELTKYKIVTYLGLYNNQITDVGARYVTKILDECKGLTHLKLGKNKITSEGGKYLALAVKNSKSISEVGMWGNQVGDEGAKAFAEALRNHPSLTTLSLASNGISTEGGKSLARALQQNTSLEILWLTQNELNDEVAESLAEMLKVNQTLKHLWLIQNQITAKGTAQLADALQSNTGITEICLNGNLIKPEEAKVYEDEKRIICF

[2] = Binding affinity to Jack bean Concanavalin A by SPR assay; set-up: species or system Canavalia ensiformis
[3] = molecular target: T2, Jacalin (Artocarpus heterophyllus, UniProt Q38720); assay: Binding affinity to jackfruit jacalin by SPR assay
T2 sequence (Q38720 whole entry): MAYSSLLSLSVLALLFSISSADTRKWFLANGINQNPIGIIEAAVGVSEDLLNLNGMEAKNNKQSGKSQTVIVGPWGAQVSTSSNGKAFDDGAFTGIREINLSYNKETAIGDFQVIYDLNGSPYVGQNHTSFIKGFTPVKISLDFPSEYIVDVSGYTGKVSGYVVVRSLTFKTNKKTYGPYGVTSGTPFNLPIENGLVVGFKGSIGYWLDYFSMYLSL

[4] = molecular target: Nucleotide-binding oligomerization domain-containing protein 2 (Homo sapiens, UniProt Q9HC29); assay: Binding affinity to human NOD2 LRR domain expressed in Escherichia coli by SPR assay
Sequence of Nucleotide-binding oligomerization domain-containing protein 2 (Q9HC29 whole entry, the tested form may be a part): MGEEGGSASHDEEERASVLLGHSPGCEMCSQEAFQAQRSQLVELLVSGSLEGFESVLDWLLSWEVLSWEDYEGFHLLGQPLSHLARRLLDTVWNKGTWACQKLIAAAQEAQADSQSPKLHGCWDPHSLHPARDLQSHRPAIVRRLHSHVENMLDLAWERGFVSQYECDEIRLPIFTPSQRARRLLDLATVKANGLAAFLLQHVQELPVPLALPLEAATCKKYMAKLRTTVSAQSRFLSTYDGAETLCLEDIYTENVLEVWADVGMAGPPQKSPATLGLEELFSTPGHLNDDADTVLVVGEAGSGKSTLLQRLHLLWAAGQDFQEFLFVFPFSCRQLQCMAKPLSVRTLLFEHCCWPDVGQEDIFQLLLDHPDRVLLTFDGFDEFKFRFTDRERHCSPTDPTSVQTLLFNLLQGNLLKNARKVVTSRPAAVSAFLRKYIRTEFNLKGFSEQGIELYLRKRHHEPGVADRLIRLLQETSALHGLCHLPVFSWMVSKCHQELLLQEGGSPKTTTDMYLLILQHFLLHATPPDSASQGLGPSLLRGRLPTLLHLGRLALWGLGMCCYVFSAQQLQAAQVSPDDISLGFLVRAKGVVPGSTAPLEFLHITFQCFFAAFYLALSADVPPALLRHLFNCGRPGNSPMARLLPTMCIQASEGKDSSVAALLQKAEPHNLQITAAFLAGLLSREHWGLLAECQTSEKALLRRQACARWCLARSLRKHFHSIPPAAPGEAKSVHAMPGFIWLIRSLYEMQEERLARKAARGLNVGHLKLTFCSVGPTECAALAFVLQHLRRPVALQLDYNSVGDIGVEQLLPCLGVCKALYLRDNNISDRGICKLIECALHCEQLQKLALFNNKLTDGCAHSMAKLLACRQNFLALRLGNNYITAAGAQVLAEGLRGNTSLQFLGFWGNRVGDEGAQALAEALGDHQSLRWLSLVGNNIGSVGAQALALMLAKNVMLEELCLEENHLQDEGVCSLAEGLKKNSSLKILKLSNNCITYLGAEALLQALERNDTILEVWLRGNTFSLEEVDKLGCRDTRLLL

Question: With C[C@H](N)C(=O)N[C@H](CCC(=O)N[C@@H](CCC[C@@H](N)C(=O)O)C(=O)O)C(N)=O as the compound, how does the Kd [1] read?
Answer: The Kd was 35 µM.

Question: Which Kd [2] does the source give for OC[C@H]1OC(O)[C@@H](O)[C@@H](O)[C@@H]1O (stereo partly drawn) [D-MANNOSE] here?
Answer: The Kd was 200 µM.

Question: With O=C[C@H](O)[C@@H](O)[C@@H](O)[C@H](O)CO [GALACTOSE] as the compound, how does the Kd [3] read?
Answer: The Kd was 16 µM.

Question: With CC(=O)N[C@H]1C(O)O[C@H](CO)[C@@H](O)[C@@H]1O[C@H](C)C(=O)N[C@@H](C)C(=O)N[C@H](CCC(=O)O)C(N)=O (some centres undefined) [MURAMYL DIPEPTIDE] as the compound, how does the Kd [4] read?
Answer: The Kd was 0.2 µM.
